Data published in patent publication US8546451B2 (priority 2005, dated 2013).
Marks after values point to notes of the source that are not given here.

How the values were obtained:
[1] = target: rat ER-α (Rattus norvegicus (Rat), UniProt P06211); assay: cell-based
Protocol: Transactivation assays in agonist and antagonist modes were performed to identify whether the compound is an agonist, antagonist or a partial.
Sequencing was performed to determine the absence of any mutations. HEK-293 cells were plated at 100,000 cells per well of a 24 well plate in Dulbecco's Minimal Essential Media (DMEM) +5% charcoal-stripped fetal bovine serum (csFBS). The cells were transfected using Lipofectamine (Invitrogen, Carlsbad, Calif.) with 0.25 μg ERE-LUC, 0.02 μg CMV-LUC (renilla luciferase) and 12.5 ng of rat ER-α or 25 ng rat ER-β. […] Luciferase assays were performed 48 hrs after transfection.

[2] = target: glucocorticoid receptor (GR) (Rattus norvegicus (Rat), UniProt P06536); assay: Cross-reactivity transcriptional activation assay, GR; type: cell-based; conditions: agonist and antagonist modes
Description: (§1) Compound IV was screened for cross-reactivity against rat isoforms of glucocorticoid receptor (GR), mineralocorticoids receptor (MR), progesterone receptor (PR), androgen receptor (AR) and human isoforms of farnesoid X receptor (FXR), liver X receptor (LXR), peroxisome proliferator-activated receptors (PPAR-α and PPAR-γ), and retinoid X receptor (RXR-α) in both agonist and antagonist modes in transcriptional activation assays.

[3] = target: mineralocorticoids receptor (MR) (Rattus norvegicus (Rat), UniProt P22199); assay: Cross-reactivity transcriptional activation assay, MR; type: cell-based; conditions: agonist and antagonist modes
Description: as §1

[4] = test system: isolated canine Purkinje fibers; assay: Action potential duration in isolated canine Purkinje fibers; conditions: 10 and 100 μM
[5] = Renal function after single oral dose; type: in vivo
[6] = test system: testosterone, prostate specific antigen (PSA), prostate volume and weight; assay: 39-week oral pharmacology and toxicology study in male cynomolgus monkey (13-week interim); conditions: for Mean serum PSA level / Percentage change of mean PSA levels compared to baseline: 4-week; for Percentage change of mean prostate volumes compared to baseline / Mean prostate volumes (ratio): 6-week; for Mean prostate volumes (ratio): TRUS, normalized to body weight; for Mean prostate weights at necropsy / Percentage change of mean prostate weights compared to baseline: 13-week
[7] = 1 mg/kg/day oral, Estimated final concentrations
[8] = 1 mg/kg/day oral, Quantifiable concentrations only
[9] = 10 mg/kg/day oral, Estimated final concentrations
[10] = 10 mg/kg/day oral, Quantifiable concentrations only
[11] = 100 mg/kg/day oral, Estimated final concentrations
[12] = 100 mg/kg/day oral, Quantifiable concentrations only
[13] = Day 1, 1 mg/kg/day oral, Estimated final concentrations
[14] = Day 1, 1 mg/kg/day oral, Quantifiable concentrations only
[15] = Day 1, 10 mg/kg/day oral, Estimated final concentrations
[16] = Day 1, 10 mg/kg/day oral, Quantifiable concentrations only
[17] = Day 1, 100 mg/kg/day oral, Estimated final concentrations
[18] = Day 1, 100 mg/kg/day oral, Quantifiable concentrations only
[19] = Day 3, 1 mg/kg/day oral, Estimated final concentrations
[20] = Day 3, 1 mg/kg/day oral, Quantifiable concentrations only
[21] = Day 3, 10 mg/kg/day oral, Estimated final concentrations
[22] = Day 3, 10 mg/kg/day oral, Quantifiable concentrations only
[23] = Day 3, 100 mg/kg/day oral, Estimated final concentrations
[24] = Day 3, 100 mg/kg/day oral, Quantifiable concentrations only
[25] = Day 7, 1 mg/kg/day oral, Estimated final concentrations
[26] = Day 7, 1 mg/kg/day oral, Quantifiable concentrations only

Chain of rat ER-α (P06211 whole entry): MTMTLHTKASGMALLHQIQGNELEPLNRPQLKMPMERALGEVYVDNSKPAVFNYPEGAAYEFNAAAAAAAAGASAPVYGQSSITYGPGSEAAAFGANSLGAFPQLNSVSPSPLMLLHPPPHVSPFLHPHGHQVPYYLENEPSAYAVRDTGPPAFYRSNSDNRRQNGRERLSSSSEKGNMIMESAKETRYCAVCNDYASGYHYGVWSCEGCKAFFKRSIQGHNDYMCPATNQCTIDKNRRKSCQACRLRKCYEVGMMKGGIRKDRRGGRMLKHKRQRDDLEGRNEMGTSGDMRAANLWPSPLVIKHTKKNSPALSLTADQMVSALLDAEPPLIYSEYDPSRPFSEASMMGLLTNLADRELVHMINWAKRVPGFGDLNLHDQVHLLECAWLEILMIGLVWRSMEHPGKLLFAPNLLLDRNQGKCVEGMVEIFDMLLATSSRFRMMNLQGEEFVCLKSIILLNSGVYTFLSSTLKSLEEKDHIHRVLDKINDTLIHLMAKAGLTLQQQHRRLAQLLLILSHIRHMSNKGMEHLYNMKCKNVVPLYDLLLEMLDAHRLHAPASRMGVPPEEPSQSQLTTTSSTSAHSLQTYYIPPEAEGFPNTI
Chain of glucocorticoid receptor (GR) (P06536 whole entry, canonical isoform): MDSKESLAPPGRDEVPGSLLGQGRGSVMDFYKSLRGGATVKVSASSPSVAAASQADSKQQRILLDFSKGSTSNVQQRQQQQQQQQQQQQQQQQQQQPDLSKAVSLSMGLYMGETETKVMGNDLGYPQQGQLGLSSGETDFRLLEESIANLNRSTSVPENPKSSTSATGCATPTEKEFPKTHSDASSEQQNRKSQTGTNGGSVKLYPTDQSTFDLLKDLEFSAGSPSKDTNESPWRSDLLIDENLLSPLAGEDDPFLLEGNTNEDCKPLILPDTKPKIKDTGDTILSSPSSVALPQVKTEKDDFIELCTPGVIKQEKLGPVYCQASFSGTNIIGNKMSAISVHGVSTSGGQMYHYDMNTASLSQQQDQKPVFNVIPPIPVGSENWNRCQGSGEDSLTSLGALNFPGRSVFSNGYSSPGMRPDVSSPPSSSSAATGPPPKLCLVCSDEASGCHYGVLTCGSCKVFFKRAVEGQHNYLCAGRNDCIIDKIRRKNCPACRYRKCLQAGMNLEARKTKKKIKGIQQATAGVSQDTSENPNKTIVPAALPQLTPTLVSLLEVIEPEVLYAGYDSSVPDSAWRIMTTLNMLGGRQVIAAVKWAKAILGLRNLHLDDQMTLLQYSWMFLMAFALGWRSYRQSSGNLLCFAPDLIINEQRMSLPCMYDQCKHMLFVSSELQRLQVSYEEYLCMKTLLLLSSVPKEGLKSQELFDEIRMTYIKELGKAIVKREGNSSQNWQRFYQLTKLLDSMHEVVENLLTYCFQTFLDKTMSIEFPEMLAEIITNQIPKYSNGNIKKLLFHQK
Chain of mineralocorticoids receptor (MR) (P22199 whole entry): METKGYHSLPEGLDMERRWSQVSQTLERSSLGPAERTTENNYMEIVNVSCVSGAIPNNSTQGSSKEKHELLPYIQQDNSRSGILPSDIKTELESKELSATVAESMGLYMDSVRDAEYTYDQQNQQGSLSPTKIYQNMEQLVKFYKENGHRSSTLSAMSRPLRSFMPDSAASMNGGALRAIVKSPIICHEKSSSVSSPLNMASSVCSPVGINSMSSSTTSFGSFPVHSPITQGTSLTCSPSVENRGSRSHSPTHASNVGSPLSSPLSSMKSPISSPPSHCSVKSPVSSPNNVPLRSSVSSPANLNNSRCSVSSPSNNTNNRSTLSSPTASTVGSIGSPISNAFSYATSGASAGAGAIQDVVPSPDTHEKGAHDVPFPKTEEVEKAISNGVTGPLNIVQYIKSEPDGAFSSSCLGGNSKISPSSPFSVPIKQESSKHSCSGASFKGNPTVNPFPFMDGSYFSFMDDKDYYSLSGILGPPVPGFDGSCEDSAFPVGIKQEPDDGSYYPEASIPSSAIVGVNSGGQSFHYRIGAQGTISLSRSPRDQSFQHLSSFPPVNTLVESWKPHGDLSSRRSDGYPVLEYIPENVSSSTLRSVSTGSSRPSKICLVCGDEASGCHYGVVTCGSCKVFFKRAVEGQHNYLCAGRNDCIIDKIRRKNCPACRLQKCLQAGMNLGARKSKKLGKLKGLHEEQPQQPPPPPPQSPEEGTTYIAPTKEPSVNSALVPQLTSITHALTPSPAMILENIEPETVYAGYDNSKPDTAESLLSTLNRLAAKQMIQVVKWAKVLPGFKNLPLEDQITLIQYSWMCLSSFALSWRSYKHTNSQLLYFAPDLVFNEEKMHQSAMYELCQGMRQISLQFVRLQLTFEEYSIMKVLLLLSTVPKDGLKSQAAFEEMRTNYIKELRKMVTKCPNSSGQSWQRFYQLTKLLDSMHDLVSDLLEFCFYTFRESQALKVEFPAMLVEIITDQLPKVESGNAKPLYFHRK

## O=C(c1ccc(O)c(F)c1)N(c1ccc(O)cc1)c1ccc(F)cc1 [Compound IV, 3-fluoro-N-(4-fluorophenyl)-4-hydroxy-N-(4-hydroxyphenyl)benzamide]
[1]
  ERα activity in transient transfection assays: agonist
  selectivity for ERα over ERβ in transcriptional activation: 49.0 fold
[1]; estradiol 1 nM, concentrations up to 10 μM
  antagonist effects on estradiol-stimulated transcriptional activation: no antagonist effects were observed
[1]; normalized to estradiol values
  relative selectivity in transactivation potency for ERα over ERβ: 9.7 fold
[2]
  agonist or antagonist activity: did not display any agonist or antagonist activity
[3]
  agonist or antagonist activity: did not display any agonist or antagonist activity
[4]
  APD50: decreased
  APD90: decreased
[5]; highest dose tested (100 mg/kg)
  effects on renal function: increased urine volume output and urinary excretion of potassium and chloride
[5]; single oral dose of up to 30 mg/kg
  effects on renal function: No significant effects
[6]; 10 mg/kg for 4 weeks
  PSA reduction (in mean): 69%
[6]; 100 mg/kg for 4 weeks
  PSA reduction (in mean): 87%
[6]; 100 mg/kg, 91 days (FIG. 14)
  body weight reduction: ~20%
[6]; [7]
  Mean serum PSA level: 0.9 ng/mL
  Percentage change of mean PSA levels compared to baseline: −11%
[6]; [8]
  Mean serum PSA level: 0.9 ng/mL
  Percentage change of mean PSA levels compared to baseline: −11%
[6]; [9]
  Mean serum PSA level: 0.3* ng/mL
  Percentage change of mean PSA levels compared to baseline: −69%
[6]; [10]
  Mean serum PSA level: 0.3 ng/mL
  Percentage change of mean PSA levels compared to baseline: −64%
[6]; [11]
  Mean serum PSA level: 0.1^& ng/mL
  Percentage change of mean PSA levels compared to baseline: −87%
[6]; [12]
  Mean serum PSA level: 0.3 ng/mL
  Percentage change of mean PSA levels compared to baseline: −72%
[6]; 1 mg/kg/day oral
  Percentage change of mean prostate volumes compared to baseline: 6.8%
  Mean prostate volumes (ratio): 468
  Mean prostate weights at necropsy: 1.8 grams
  Percentage change of mean prostate weights compared to baseline: 1.7%
[6]; 10 mg/kg/day oral
  Percentage change of mean prostate volumes compared to baseline: −25%
  Mean prostate volumes (ratio): 327
  Mean prostate weights at necropsy: 1.3 grams
  Percentage change of mean prostate weights compared to baseline: −24%
[6]; 100 mg/kg/day oral
  Percentage change of mean prostate volumes compared to baseline: −45%
  Mean prostate volumes (ratio): 242
  Mean prostate weights at necropsy: 1.4 grams
  Percentage change of mean prostate weights compared to baseline: −21%
[6]; 91 days (FIG. 14)
  gynecomastia or hyperestrogenicity: No sign of gynecomastia or hyperestrogenicity
[6]; [13]
  Mean serum testosterone level: 11 ng/mL
  Percentage change of mean serum testosterone levels compared to baseline: 44%
[6]; [14]
  Mean serum testosterone level: 11 ng/mL
  Percentage change of mean testosterone levels compared to baseline: 44%
[6]; [15]
  Mean serum testosterone level: 7.6 ng/mL
  Percentage change of mean serum testosterone levels compared to baseline: 54%
[6]; [16]
  Mean serum testosterone level: 7.6 ng/mL
  Percentage change of mean testosterone levels compared to baseline: 54%
[6]; [17]
  Mean serum testosterone level: 8.0 ng/mL
  Percentage change of mean serum testosterone levels compared to baseline: 82%
[6]; [18]
  Mean serum testosterone level: 8.0 ng/mL
  Percentage change of mean testosterone levels compared to baseline: 82%
[6]; [19]
  Mean serum testosterone level: 7.4 ng/mL
  Percentage change of mean serum testosterone levels compared to baseline: 1.8%
[6]; [20]
  Mean serum testosterone level: 7.4 ng/mL
  Percentage change of mean testosterone levels compared to baseline: 1.8%
[6]; [21]
  Mean serum testosterone level: 5.1 ng/mL
  Percentage change of mean serum testosterone levels compared to baseline: 3.5%
[6]; [22]
  Mean serum testosterone level: 5.1 ng/mL
  Percentage change of mean testosterone levels compared to baseline: 3.5%
[6]; Day 3, 100 mg/kg/day oral
  suppression of serum testosterone relative to the baseline value: 60%
[6]; [23]
  Mean serum testosterone level: 1.8* ng/mL
  Percentage change of mean serum testosterone levels compared to baseline: −60%
[6]; [24]
  Mean serum testosterone level: 1.8 ng/mL
  Percentage change of mean testosterone levels compared to baseline: −60%
[6]; [25]
  Mean serum testosterone level: 6.7 ng/mL
  Percentage change of mean serum testosterone levels compared to baseline: −8.1%
[6]; [26]
  Mean serum testosterone level: 6.7 ng/mL
  Percentage change of mean testosterone levels compared to baseline: −8.1%
